Results taken from patent publication US20140080810A1 (Exelixis, Inc., priority 2010, published 2014).
Like-named read-outs stand apart in the source and are kept apart here.

Experiments:
[1] = target: PI3Kα E545K (Homo sapiens, UniProt P42336, E545K); assay: PI3K Biochemical Assay; details: PIP2 used as substrate
Procedure: (§1) PI3Kα activity is measured as the percent of ATP consumed following the kinase reaction using luciferase-luciferin-coupled chemiluminescence. Reactions were conducted in 384-well white, medium binding microtiter plates (Greiner). Kinase reactions were initiated by combining test compounds, ATP, substrate (PIP2), and kinase in a 20 μL volume in a buffer solution. The standard PI3Kalpha assay buffer is composed 50 mM Tris, pH 7.5, 1 mM EGTA, 10 mM MgCl2, 1 mM DTT and 0.03% CHAPS. The standard assay concentrations for enzyme, ATP, and substrate are 1.5 nM, 1 μM, and 10 μM, respectively. The reaction mixture was incubated at ambient temperature for approximately 2 h. Following the kinase reaction, a 10 μL aliquot of luciferase-luciferin mix (Promega Kinase-Glo) was added and the chemiluminescence signal measured using a Victor2 plate reader (Perkin Elmer). Total ATP consumption was limited to 40-60% and IC50 values of control compounds correlate well with literature references. Substituting PI3Kα with PI3Kβ, PI3Kγ, or PI3Kδ, the inhibitory activity of the compounds for the other isoforms of I3K were measured.

[2] = target: PI3Kα H1047R (Homo sapiens, UniProt P42336, H1047R); assay: PI3K Biochemical Assay; details: PIP2 used as substrate
Procedure: as §1

[3] = target: PI3Kγ (Homo sapiens, UniProt P48736); assay: PI3K Biochemical Assay; details: PIP2 used as substrate
Procedure: as §1

[4] = target: PI3Kδ (Homo sapiens, UniProt O00329); assay: PI3K Biochemical Assay; details: PIP2 used as substrate; read-out: PI3K biochemical IC50 values P13Kδ
Procedure: as §1

[5] = tested on: pAKT (T308) in HCT 116 cells (PI3Kα H1047R); assay: pAKT (T308) ELISA Assay; type: cell-based; details: Homo sapiens, IGF1 stimulation, read-out: Cellular pAKT (T308) IC50 PI3KαH1047R HCT 116 IGF1
Procedure: (§2) In another embodiment, the pAKT ELISA Assay was performed by seeding cells onto 96-well plates (Corning, 3904) in their respective growth media at the densities listed in Table 5. Cells were incubated at 37° C., 5% CO2 for 48 h (except MDA-MB-453 cells which were cultured in the absence of CO2). Compounds were serially diluted in DMSO and subsequently diluted in serum-free DMEM. Test compounds were added to cells in serum-free DMEM at a final concentration of 0.3% DMSO and incubated for 3 h. Cells were lysed with 130 μL of ice-cold RIPA lysis buffer (50 mM Tris-HCl, pH 7.5; 0.5% sodium deoxycholic acid; 1% Triton X-100; 0.1% SDS; 150 mM NaCl) with protease and phosphatase inhibitors (1 mM EDTA, 1 mM NaF, 20 mM β-glycerophosphate, 1 mM Na-orthovanadate, Complete-Mini EDTA-free, Roche, 11836170001, and Phosphatase Inhibitor Cocktail I, Sigma, P2850), directly in 96-well plates. Cells were lysed on ice for 60-120 min at 4° C. The supernatants were added directly to capture ELISA plates previously pre-coated with rabbit anti-AKT capture antibody. ELISA assays for pAKT(T308) and total AKT were performed with the pAKT(T308) ELISA kit (Cell Signaling Technology, 7144) and AKT1 ELISA kit (Cell Signaling Technology, 7142). For the pAKT(T308) ELISA, 85 μL of cell lysate was added to each well. For the total AKT1 ELISA, 15 μL of cell lysate and 85 μL of Starting Block buffer (Pierce, 37543) were added to each well. The plates were incubated overnight at 4° C. with gentle shaking, then washed 3 times with 200 μL of TBST (20 mM Tris, pH 7.4; 150 mM NaCl; 0.1% Tween 20) for 30 s each, and incubated for 1 h with 100 μL of detection antibody (mouse anti-pAKT(T308) antibody or mouse anti-AKT1 antibody). After 3 washes with TBST, the plates were incubated with a 1:1000 dilution of a horseradish peroxidase-labeled anti-mouse IgG (Cell Signaling Technology, 7076) in 100 μL of Starting Block buffer for 0.5 h. After 3 washes with TBST, 50 μL of SuperSignal ELISA Femto substrate solution (Thermo Scientific, 37075A) and 50 μL of SuperSignal ELISA enhancer solution mixture (Thermo Scientific, 37075B) were added to each well and the plates were incubated for approximately 2 min and protected from light. The wells were measured for luminescence using a Wallac plate reader at wavelength of 560 nm. After normalization of pAKT signal to total AKT1 signal, IC50 values were determined relative to the DMSO-treated control.

[6] = tested on: pAKT (T308) in MDA-MB-453 cells (PI3Kα H1047R); assay: pAKT (T308) ELISA Assay; type: cell-based; details: Homo sapiens, heregulin stimulation, read-out: Cellular pAKT (T308) IC50 PI3KαH1047R MDA-MB-453 hereg
Procedure: as §2

[7] = tested on: pAKT (T308) in SK-BR-3 cells (PI3Kα wt); assay: pAKT (T308) ELISA Assay; type: cell-based; details: Homo sapiens, heregulin stimulation, read-out: Cellular pAKT (T308) IC50 PI3Kαwt SK-BR-3 hereg
Procedure: as §2

[8] = tested on: pAKT (T308) in T-47D cells (PI3Kα H1047R); assay: pAKT (T308) ELISA Assay; type: cell-based; details: Homo sapiens, T47D, IGF1 stimulation
Procedure: as §2

[9] = tested on: pAKT (T308) in SK-OV-3 cells (PI3Kα H1047R); assay: pAKT (T308) ELISA Assay; type: cell-based; details: Homo sapiens, IGF1 stimulation, read-out: Cellular pAKT (T308) IC50 PI3KαH1047R SK-OV-3 IGF1
Procedure: as §2

[10] = read-out: Cellular pAKT (T308) IC50 PI3KαH1047R T-47D IGF1
[11] = read-out: pAKT (T308) IC50 T-47D PI3Kα H1047R IGF1

PI3Kγ, sequence (P48736 whole entry): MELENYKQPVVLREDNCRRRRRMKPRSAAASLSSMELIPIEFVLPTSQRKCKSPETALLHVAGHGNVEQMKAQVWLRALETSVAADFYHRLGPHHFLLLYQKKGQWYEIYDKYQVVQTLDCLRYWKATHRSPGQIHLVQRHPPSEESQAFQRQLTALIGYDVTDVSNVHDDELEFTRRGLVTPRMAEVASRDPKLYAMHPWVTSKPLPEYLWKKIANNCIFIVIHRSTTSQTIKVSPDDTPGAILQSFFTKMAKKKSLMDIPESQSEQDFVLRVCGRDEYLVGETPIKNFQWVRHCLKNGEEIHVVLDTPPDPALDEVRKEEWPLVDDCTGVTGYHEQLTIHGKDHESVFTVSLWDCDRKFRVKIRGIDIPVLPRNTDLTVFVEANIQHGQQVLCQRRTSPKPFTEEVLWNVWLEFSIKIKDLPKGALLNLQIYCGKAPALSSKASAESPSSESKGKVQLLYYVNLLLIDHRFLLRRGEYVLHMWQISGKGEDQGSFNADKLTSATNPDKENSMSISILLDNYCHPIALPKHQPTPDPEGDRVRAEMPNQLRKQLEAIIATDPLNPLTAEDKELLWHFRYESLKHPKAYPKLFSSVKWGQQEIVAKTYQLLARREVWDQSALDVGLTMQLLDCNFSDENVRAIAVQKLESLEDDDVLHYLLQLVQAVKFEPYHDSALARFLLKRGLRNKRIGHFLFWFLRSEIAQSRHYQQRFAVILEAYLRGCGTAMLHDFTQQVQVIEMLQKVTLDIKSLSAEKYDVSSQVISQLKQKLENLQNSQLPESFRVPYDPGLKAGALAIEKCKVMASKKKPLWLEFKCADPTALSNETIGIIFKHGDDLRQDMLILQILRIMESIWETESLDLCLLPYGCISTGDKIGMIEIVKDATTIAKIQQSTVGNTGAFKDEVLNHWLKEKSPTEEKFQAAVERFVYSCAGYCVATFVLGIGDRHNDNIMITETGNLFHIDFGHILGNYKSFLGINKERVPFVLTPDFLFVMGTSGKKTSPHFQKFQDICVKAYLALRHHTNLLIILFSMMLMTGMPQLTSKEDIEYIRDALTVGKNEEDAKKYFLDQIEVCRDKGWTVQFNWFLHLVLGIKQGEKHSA
PI3Kδ, sequence (O00329 whole entry): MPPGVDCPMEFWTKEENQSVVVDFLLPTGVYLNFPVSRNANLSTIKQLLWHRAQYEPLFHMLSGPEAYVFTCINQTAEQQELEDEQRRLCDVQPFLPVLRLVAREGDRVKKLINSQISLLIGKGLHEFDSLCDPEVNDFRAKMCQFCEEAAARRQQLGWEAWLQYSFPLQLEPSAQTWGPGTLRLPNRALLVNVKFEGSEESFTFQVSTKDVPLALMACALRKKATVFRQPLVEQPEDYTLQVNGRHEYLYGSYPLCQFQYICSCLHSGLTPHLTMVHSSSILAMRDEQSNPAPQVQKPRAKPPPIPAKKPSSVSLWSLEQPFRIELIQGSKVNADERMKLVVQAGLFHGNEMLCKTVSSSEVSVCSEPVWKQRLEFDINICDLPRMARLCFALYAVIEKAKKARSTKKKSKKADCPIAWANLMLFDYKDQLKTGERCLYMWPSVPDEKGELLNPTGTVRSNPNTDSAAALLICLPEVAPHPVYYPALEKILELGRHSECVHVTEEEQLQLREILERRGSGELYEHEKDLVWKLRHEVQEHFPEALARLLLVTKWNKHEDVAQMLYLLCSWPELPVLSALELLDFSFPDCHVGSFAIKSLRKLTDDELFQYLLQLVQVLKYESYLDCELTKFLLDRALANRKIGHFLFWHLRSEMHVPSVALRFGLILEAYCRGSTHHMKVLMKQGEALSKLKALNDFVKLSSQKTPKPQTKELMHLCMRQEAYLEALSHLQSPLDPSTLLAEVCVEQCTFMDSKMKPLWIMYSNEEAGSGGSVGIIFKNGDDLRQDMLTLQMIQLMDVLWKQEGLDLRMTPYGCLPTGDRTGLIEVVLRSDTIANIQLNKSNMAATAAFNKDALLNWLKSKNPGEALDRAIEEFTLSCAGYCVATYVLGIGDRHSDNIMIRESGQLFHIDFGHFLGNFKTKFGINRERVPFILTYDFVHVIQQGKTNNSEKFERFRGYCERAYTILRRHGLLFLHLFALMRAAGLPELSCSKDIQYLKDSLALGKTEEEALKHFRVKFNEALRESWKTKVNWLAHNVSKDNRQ
PI3Kδ, sequence (P27986 whole entry partner): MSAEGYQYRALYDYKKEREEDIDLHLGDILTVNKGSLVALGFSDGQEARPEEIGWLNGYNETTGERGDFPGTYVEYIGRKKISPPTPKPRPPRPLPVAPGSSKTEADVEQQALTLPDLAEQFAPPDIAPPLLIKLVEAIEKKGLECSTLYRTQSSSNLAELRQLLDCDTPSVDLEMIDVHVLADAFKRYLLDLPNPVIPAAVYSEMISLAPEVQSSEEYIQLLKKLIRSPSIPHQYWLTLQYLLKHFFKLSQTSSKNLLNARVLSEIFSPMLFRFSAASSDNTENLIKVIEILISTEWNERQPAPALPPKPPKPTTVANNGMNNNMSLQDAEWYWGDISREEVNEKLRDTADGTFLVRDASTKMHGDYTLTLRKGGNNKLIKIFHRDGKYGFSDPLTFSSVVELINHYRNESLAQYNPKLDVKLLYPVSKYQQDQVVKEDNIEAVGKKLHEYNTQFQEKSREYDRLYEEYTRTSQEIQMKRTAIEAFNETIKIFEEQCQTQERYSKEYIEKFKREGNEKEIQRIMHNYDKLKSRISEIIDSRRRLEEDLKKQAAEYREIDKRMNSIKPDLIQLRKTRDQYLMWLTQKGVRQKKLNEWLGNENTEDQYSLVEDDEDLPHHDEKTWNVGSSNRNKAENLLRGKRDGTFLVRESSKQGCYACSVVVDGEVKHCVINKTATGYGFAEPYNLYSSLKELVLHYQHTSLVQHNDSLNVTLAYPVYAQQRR
PI3Kα E545K, sequence (P42336 whole entry E545K): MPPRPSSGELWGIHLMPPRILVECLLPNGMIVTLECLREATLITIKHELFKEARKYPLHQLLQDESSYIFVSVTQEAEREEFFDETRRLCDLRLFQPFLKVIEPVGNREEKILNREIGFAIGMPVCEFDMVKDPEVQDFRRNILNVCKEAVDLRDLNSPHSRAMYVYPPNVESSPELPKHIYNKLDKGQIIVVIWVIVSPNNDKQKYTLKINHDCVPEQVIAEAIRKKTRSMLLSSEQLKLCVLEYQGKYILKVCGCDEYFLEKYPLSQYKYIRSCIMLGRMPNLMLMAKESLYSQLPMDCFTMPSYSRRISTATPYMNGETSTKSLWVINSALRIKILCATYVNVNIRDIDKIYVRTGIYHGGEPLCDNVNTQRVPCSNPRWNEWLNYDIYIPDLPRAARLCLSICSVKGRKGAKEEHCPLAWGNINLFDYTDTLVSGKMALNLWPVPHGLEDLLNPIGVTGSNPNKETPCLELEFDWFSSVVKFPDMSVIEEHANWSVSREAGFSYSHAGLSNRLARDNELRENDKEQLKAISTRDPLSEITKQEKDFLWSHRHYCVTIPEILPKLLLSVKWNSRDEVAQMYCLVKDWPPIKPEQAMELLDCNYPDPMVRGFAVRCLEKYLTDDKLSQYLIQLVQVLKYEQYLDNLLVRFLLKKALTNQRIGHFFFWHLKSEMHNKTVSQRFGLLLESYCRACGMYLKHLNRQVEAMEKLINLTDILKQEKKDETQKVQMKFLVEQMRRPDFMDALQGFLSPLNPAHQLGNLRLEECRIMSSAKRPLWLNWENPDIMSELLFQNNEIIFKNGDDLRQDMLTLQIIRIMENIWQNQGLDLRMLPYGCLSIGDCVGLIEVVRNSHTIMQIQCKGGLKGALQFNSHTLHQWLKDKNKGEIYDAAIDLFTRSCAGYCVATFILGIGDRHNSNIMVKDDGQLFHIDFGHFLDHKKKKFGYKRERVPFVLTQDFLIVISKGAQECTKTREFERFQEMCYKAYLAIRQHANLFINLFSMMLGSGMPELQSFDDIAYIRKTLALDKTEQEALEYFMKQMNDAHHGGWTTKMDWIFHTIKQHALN
PI3Kα E545K, sequence (P27986 whole entry partner): as the sequence (P27986 whole entry partner) above
PI3Kα H1047R, sequence (P42336 whole entry H1047R): as the sequence (P42336 whole entry E545K) above, with K545E, H1047R counted along it
PI3Kα H1047R, sequence (P27986 whole entry partner): as the sequence (P27986 whole entry partner) above

| SMILES | IC50 [1] | IC50 [2] | IC50 [3] | IC50 [4] | IC50 [5] | IC50 [6] | IC50 [7] | IC50 [8, 10] | IC50 [8, 11] | IC50 [9] |
| --- | --- | --- | --- | --- | --- | --- | --- | --- | --- | --- |
| Cc1nc2ncc(-c3ccc4c(c3)CN(c3nc(CN(C)C)nc5c3CC(C)(C)CC5)CCO4)cc2[nH]1 [Compound 693] | 5 nM | 3 nM | 1120 nM | 575 nM | 168 nM | 40 nM | 339 nM | 73 nM | 73 nM |  |
| Cc1nc2cc(-c3ccc4c(c3)CN(c3nc(CN(C)C)nc(C)c3C(C)C)CCO4)cnc2[nH]1 [Compound 694] | 6 nM | 5 nM | 1850 nM | 831 nM | 130 nM | 18 nM | 115 nM | 102 nM | 102 nM |  |
| COc1ccc2c(N3CCOc4ccc(-c5cnc6nc(C)[nH]c6c5)cc4C3)nc(CN(C)C)nc2c1 [Compound 696] | 9 nM | 5 nM | 1800 nM | 149 nM | 400 nM | 117 nM | 1240 nM | 213 nM | 213 nM | 956 nM |
| CCNc1nc2ccc(-c3ccc4c(c3)CN(c3ccnc5cc(F)ccc35)CCO4)cc2[nH]1 [Compound 698] | 6 nM | 7 nM | 159 nM | 162 nM | 462 nM | 118 nM | 2860 nM | 258 nM | 258 nM | 438 nM |
| CCNc1nc2ccc(-c3ccc4c(c3)CN(c3ncnc(NCC)c3C)CCO4)cc2[nH]1 [Compound 699] | 5 nM | 6 nM | 158 nM | 440 nM | 719 nM | 639 nM | 4540 nM | 207 nM | 207 nM | 1240 nM |
